How the values were obtained:
[1] = Side effects of systemic therapeutic use; type: in vivo, human; details: systemic therapeutic use in the context of the invention
Excerpt: In line with the reaction kinetic knowledge from the topical application of ClO2 solutions by Noszticzius et al., it was possible to confirm in the course of the present invention that, contrary to the earlier fears of parts of the professional world, a systemic therapeutic use of reactive oxidative species such as ClO2 need not in any way be accompanied by undesirable or even damaging effects.

coronavirus = details: cited from earlier work
human coronavirus = details: cited from earlier work
[2] = humans; intake over a period of 14 days; cited from earlier work

## [O][Cl+][O-] [chlorine dioxide]
[1]
  serious side effects or deaths: no such effects have come to light
coronavirus
  effectiveness against coronavirus: effective against coronavirus
Human coronavirus
  effectiveness against human coronavirus: effective against human coronavirus
[2]
  lethal dose LD50: 292 mg per kilogram of body weight per day
